In publication PMC6272903, “Synthesis and Structure-Activity Relationship Analysis of 5-HT7 Receptor Antagonists: Piperazin-1-yl Substituted Unfused Heterobiaryls” (Molecules, 2016):
“And” between values parts separate entries of the source, which are not always exact repeats. Identical values can stand only once. Counter-ions that a name gives are not always drawn.

How the values were obtained:
dopaminergic D2 = target: T1, dopaminergic D2 (Homo sapiens, UniProt P14416); test: D2 competition binding assay ([3H]-Raclopride); conditions: for Ki: [3H]-Raclopride, HEK293 cells with overexpressed receptor, read-out: Ki ± S.D. D2
T1 construct: expressed in transfected cells; host or cells: HEK293
T1 sequence (P14416 whole entry): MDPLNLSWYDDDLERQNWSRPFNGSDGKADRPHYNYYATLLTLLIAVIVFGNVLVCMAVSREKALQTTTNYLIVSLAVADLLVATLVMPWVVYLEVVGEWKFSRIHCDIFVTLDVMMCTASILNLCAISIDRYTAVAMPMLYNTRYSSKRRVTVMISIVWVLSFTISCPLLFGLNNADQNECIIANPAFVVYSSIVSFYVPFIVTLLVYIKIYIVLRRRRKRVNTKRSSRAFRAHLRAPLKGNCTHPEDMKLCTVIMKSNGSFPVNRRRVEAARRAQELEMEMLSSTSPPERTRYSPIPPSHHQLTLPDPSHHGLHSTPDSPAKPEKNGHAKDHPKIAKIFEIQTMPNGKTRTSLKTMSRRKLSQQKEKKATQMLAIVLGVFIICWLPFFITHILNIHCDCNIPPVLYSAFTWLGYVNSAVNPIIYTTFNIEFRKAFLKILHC

5-HT6 = target: T2, 5-HT6 (Homo sapiens, UniProt P50406); test: 5-HT6 competition binding assay ([3H]-LSD); conditions: for Ki: [3H]-LSD, HEK293 cells with overexpressed receptor, read-out: Ki ± S.D. 5-HT6
T2 construct: expressed in transfected cells; host or cells: HEK293
T2 sequence (P50406 whole entry, species assumed): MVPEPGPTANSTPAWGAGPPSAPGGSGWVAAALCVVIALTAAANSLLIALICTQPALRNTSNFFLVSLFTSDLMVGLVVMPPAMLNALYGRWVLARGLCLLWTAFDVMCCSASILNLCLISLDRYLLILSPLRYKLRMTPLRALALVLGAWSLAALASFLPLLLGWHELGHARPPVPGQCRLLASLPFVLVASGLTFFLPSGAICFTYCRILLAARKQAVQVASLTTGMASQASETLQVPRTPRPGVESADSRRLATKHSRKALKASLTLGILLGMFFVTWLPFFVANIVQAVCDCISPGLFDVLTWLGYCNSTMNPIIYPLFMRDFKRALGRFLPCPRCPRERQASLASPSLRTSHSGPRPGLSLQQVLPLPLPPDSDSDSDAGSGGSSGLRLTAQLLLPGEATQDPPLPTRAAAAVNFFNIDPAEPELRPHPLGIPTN

5-HT1A = target: T3, 5-HT1A (Homo sapiens, UniProt P08908); test: 5-HT1A competition binding assay ([3H]-8-OH-DPAT); conditions: HEK293 cells with overexpressed receptor, read-out: Ki ± S.D. 5-HT1A
T3 construct: expressed in transfected cells; host or cells: HEK293
T3 sequence (P08908 1-422): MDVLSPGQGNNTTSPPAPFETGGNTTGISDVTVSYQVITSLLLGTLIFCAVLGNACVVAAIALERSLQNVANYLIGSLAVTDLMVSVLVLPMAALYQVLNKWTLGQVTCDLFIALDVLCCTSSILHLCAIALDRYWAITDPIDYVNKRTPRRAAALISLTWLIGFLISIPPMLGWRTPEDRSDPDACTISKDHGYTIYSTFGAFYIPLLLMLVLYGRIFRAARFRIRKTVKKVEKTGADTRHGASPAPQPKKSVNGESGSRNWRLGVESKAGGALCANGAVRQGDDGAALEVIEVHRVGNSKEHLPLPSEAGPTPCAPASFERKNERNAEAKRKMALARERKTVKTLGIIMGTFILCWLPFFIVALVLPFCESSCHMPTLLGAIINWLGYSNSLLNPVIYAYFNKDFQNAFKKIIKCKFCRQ

human 5-HT7b receptors = target: T4, human 5-HT7b receptors (Homo sapiens, UniProt P34969); test: 5-HT7 competition radioligand binding assay ([3H]5-CT); conditions: HEK293 cells overexpressing human 5-HT7b receptors, at least two independent experiments in triplicate; for Ki: read-out: Ki ± S.D. 5-HT7 binding affinity
T4 construct: expressed in transfected cells; host or cells: HEK293
T4 sequence (P34969 1-432): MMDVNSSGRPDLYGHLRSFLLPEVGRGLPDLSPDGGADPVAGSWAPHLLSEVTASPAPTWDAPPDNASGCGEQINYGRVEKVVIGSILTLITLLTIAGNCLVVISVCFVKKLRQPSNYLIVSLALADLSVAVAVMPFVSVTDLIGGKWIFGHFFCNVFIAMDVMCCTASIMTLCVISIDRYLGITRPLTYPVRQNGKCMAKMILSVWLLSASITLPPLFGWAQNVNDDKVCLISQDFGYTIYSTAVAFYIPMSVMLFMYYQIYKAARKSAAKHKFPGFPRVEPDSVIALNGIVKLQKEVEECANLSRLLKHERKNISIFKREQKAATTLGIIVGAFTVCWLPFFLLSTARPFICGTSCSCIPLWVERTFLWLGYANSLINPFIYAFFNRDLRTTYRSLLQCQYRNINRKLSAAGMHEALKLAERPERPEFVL
Description: Novel scaffold endowed with 5-HT7R activity was identified by screening of the in-house compound library in a single compound concentration of 1 µM in a competition radioligand binding assay using [^3H]5-CT and HEK293 cells overexpressing the human 5-HT7b receptors.

5-HT2A = target: T5, 5-HT2A (Homo sapiens, UniProt P28223); test: 5-HT2A competition binding assay ([3H]-Ketanserin); conditions: CHO cells with overexpressed receptor, read-out: Ki ± S.D. 5-HT2A
T5 construct: expressed in transfected cells; host or cells: CHO
T5 sequence (P28223 whole entry, species assumed): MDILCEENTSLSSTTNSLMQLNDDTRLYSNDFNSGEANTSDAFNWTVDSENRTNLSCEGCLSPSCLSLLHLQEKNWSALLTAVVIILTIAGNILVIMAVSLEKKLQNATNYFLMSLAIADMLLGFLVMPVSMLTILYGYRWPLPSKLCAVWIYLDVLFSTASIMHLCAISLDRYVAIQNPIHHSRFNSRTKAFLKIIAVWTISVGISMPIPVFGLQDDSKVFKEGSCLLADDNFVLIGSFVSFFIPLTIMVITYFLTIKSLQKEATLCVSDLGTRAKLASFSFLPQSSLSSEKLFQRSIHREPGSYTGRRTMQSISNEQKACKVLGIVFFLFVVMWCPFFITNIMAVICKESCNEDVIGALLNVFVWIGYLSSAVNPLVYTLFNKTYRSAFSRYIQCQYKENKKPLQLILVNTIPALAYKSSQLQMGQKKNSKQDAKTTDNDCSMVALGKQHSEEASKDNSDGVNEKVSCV

5-HT7R = target: T6, 5-HT7R (Homo sapiens, UniProt P34969); test: cAMP functional test: inhibition of cAMP production induced by 5-CT (10 nM); format: cell-based; conditions: for Kb: cAMP production induced by 5-CT (10 nM), HEK-293 cells expressing 5-HT7R, read-out: KB (5-HT7R antagonistic properties); for effect on 5-CT-induced cAMP accumulation: transfected HEK cells expressing 5-HT7R, 5-CT (10 nM)
T6 construct: expressed in transfected cells; host or cells: HEK293
T6 sequence (P34969 1-432): as the sequence (P34969 1-432) above

Row | Structure (SMILES) | melting point | Ki (human 5-HT7b receptors) [µM] | other results
1 | c1cc(-c2ccoc2)nc(N2CCNCC2)n1 (as salt: hydrobromid) [Compound 1, 4-(3-Furyl)-2-(piperazin-1-yl)pyrimidine] | 241 to 242 °C | – | –
2 | CCCN1CCN(c2nccc(-c3ccoc3)n2)CC1 (as salt: hydrobromid) [Compound 4, 4-(3-Furyl)-2-(4-propylpiperazin-1-yl)pyrimidine] | 274 to 277 °C | – | –
3 | c1ccc(CN2CCN(c3nccc(-c4ccoc4)n3)CC2)cc1 (as salt: hydrobromid) [Compound 5, 2-(4-Benzylpiperazin-1-yl)-4-(3-furyl)pyrimidine] | > 280 °C | – | –
4 | CCc1cc(-c2ccoc2)nc(N2CCN(C)CC2)n1 (as salt: hydrobromid) [Compound 12, 4-Ethyl-6-(3-furyl)-2-(4-methylpiperazin-1-yl)pyrimidine] | 287 to 288 °C | – | –
5 | CCCCc1cc(-c2ccoc2)nc(N2CCN(C)CC2)n1 (as salt: hydrobromid) [Compound 13, 4-(n-Butyl)-6-(3-furyl)-2-(4-methylpiperazin-1-yl)pyrimidine] | 179 to 180 °C | – | –
6 | CCCc1cnc(N2CCN(C)CC2)nc1-c1ccoc1 (as salt: hydrobromid) [Compound 21, 4-(3-Furyl)-2-(4-methylpiperazino)-5-propylpyrimidine] | 206 to 208 °C | – | –
7 | CCCCc1nc(N2CCN(C)CC2)nc(-c2ccoc2)c1CCC (as salt: hydrobromid) [Compound 22, 4-n-Butyl-6-(3-furyl)-2-(4-methylpiperazino)-5-propylpyrimidine] | 203 °C (dec.) | – | –
8 | Cc1occc1-c1ccnc(N2CCN(C)CC2)n1 (as salt: hydrobromid) [Compound 23, 4-(2-Methyl-3-furyl)-2-(4-methylpiperazin-1-yl)pyrimidine] | 263 to 265 °C | – | –
9 | Cc1cc(-c2ccnc(N3CCN(C)CC3)n2)co1 (as salt: hydrobromid) [Compound 24, 4-(5-Methyl-3-furyl)-2-(4-methylpiperazin-1-yl)pyrimidine] | 275 °C (dec.) | – | –
10 | CN1CCN(c2nc(-c3ccoc3)cc(C(F)(F)F)n2)CC1 (as salt: hydrochloride) [Compound 16, 4-(3-Furyl)-2-(4-methylpiperazin-1-yl)-6-(trifluoromethyl)pyrimidine] | > 300 °C | – | –
11 | CCc1cc(-c2ccoc2)nc(N2CCN(C)CC2)n1 [Compound 12, 4-Ethyl-6-(3-furyl)-2-(4-methylpiperazin-1-yl)pyrimidine] | – | 0.0071 ± 0.0014 | Ki (dopaminergic D2): 0.466 ± 0.039 µM; Ki (5-HT6): 0.121 ± 0.014 µM; Ki (5-HT1A): 1.5 ± 0.164 µM; Ki (5-HT2A): 0.01 µM and 0.012 µM; Kb (5-HT7R): 0.012 µM; effect on 5-CT-induced cAMP accumulation (5-HT7R): dose-dependently decrease
12 | CCCCc1cc(-c2ccoc2)nc(N2CCN(C)CC2)n1 [Compound 13, 4-(n-Butyl)-6-(3-furyl)-2-(4-methylpiperazin-1-yl)pyrimidine] | – | 0.0016 ± 0.0002 | fold more active than 12 at D2 receptors (dopaminergic D2; 13 versus 12): 13 fold; Ki (dopaminergic D2): 0.037 ± 0.004 µM; fold more active than 12 at 5-HT6 (5-HT6; 13 versus 12): 10 fold; Ki (5-HT6): 0.012 ± 0.002 µM; Ki (5-HT1A): 0.637 ± 0.053 µM; Ki (5-HT2A): 0.012 µM and 0.01 µM; Kb (5-HT7R): 0.06 µM; effect on 5-CT-induced cAMP accumulation (5-HT7R): dose-dependently decrease
13 | CN1CCN(c2cccc(-c3ccoc3)c2)CC1 [Compound 60, 1-[3-(3-Furyl)phenyl]-4-methylpiperazine] | – | 0.031 ± 0.004 | –
14 | Cc1cc(-c2ccoc2)cc(N2CCN(C)CC2)c1 [Compound 61, 1-[3-(3-Furyl)-5-methylphenyl]-4-methylpiperazine] | – | 0.037 ± 0.003 | –
15 | CCCCc1cc(-c2ccoc2)cc(N2CCN(C)CC2)c1 [Compound 62, 1-[3-n-Butyl-5-(3-furyl)phenyl]-4-methylpiperazine] | – | 0.106 ± 0.009 | –
16 | CN1CCN(c2cccc(-c3ccco3)c2)CC1 [Compound 63, 1-[3-(2-Furyl)phenyl]-4-methylpiperazine] | – | 0.914 ± 0.121 | –
17 | Cc1cc(-c2ccco2)cc(N2CCN(C)CC2)c1 [Compound 64, 1-[3-(2-Furyl)-5-methylphenyl]-4-methylpiperazine] | – | 0.312 ± 0.025 | –
18 | CCCCc1cc(-c2ccco2)cc(N2CCN(C)CC2)c1 [Compound 65, 1-[3-n-Butyl-5-(2-furyl)phenyl]-4-methylpiperazine] | – | 0.743 ± 0.066 | –
19 | CN1CCN(c2cccc(-c3ccsc3)c2)CC1 [Compound 66, 1-Methyl-4-[3-(3-thienyl)phenyl]piperazine] | – | 0.342 ± 0.051 | –
20 | Cc1cc(-c2ccsc2)cc(N2CCN(C)CC2)c1 [Compound 67, 1-Methyl-4-[3-methyl-5-(3-thienyl)phenyl]piperazine] | – | 0.047 ± 0.006 | –
21 | CCCCc1cc(-c2ccsc2)cc(N2CCN(C)CC2)c1 [Compound 68, 1-[3-n-Butyl-5-(3-thienyl)phenyl]-4-methylpiperazine] | – | 0.263 ± 0.019 | –
22 | CN1CCN(c2cccc(-c3cccs3)c2)CC1 [Compound 69, 1-Methyl-4-[3-(2-thienyl)phenyl]piperazine] | – | 0.542 ± 0.066 | –
23 | Cc1cc(-c2cccs2)cc(N2CCN(C)CC2)c1 [Compound 70, 1-Methyl-4-[3-methyl-5-(2-thienyl)phenyl]piperazine] | – | 0.297 ± 0.042 | –
24 | CCCCc1cc(-c2cccs2)cc(N2CCN(C)CC2)c1 [Compound 71, 1-[3-n-Butyl-5-(2-thienyl)phenyl]-4-methylpiperazine] | – | 0.734 ± 0.059 | –
25 | CC1CCN(CC[C@H]2CCCN2S(=O)(=O)c2cccc(O)c2)CC1 [SB-269970, (2R)-1-((3-hydroxyphenyl)sulfonyl)-2-(2-(4-methyl-1-piperidinyl)ethyl)pyrrolidine, reference compound] | – | – | effect on 5-CT-induced cAMP accumulation (5-HT7R): dose-dependently decrease

The next lines start with results.

Row | melting point | Structure (SMILES) | Ki (human 5-HT7b receptors) [µM] | other results
26 | 242 °C (dec.) | CCCCCCc1cc(-c2coc(C)c2)nc(N2CCN(C)CC2)n1 (as salt: hydrobromid) [Compound 25, 4-n-Hexyl-6-(5-methyl-3-furyl)-2-(4-methylpiperazin-1-yl)pyrimidine] | – | –
27 | 263 to 265 °C | Cc1ccc(-c2ccnc(N3CCN(C)CC3)n2)o1 (as salt: hydrobromid) [Compound 29, 4-(5-Methyl-2-furyl)-2-(4-methylpiperazin-1-yl)pyrimidine] | – | –
28 | > 300 °C | CN1CCN(c2nccc(-c3cc4ccccc4o3)n2)CC1 (as salt: hydrobromid) [Compound 36, 4-(Benzofuran-2-yl)-2-(4-methylpiperazin-1-yl)pyrimidine] | – | –
29 | 299 to 300 °C | CN1CCN(c2nccc(-c3cc4ccccc4s3)n2)CC1 (as salt: hydrobromid) [Compound 37, 4-(Benzothiophen-2-yl)-2-(4-methylpiperazin-1-yl)pyrimidine] | – | –
30 | 176 to 177 °C | CN1CCCN(c2nccc(-c3ccoc3)n2)CC1 (as salt: hydrobromid) [Compound 42, 4-(3-Furyl)-2-(4-methylhomopiperazin-1-yl)pyrimidine] | – | –
31 | 190 to 191 °C | c1cc(-c2ccoc2)nc(N2CCCCC2)n1 (as salt: hydrobromid) [Compound 43, 4-(3-Furyl)-2-(piperidin-1-yl)pyrimidine] | – | –
32 | 234 to 236 °C | c1cc(-c2ccoc2)nc(NCCCc2ncc[nH]2)n1 (as salt: hydrobromid) [Compound 46, 4-(3-Furyl)-N-[3-(1H-imidazol-2-yl)propyl]pyrimidin-2-amine] | – | –
33 | 132 to 134 °C | Cc1cc(-c2cccs2)cc(N2CCN(C)CC2)n1 (as salt: hydrobromid) [Compound 56, 2-Methyl-6-(4-methylpiperazin-1-yl)-4-(2-thienyl)pyridine] | – | –
34 | > 200 °C (dec.) | c1cc(-c2ccoc2)nc(N2CC[N+]3(CCOCC3)CC2)n1 (as salt: iodide) [Compound 47, 4-[4-(3-Furyl)pyrimidin-2-yl]piperazine-1-spiro-1-morpholinium iodide] | – | –
35 | 58 to 59 °C | c1cc(-c2ccoc2)nc(N2CCOCC2)n1 [Compound 44] | > 10 | Ki ± S.D. 5-HT7 binding affinity (human 5-HT7b receptors): no affinity
